This is an account of results in patent US12201633B2, “Compounds and methods for treatment of visceral pain” (Arena Pharmaceuticals, Inc., priority 2017, dated 2025).

pEC50, pKi: −log10 of the molar value.

In assay [1] the test system is rodents, models of inflammatory pain. The settings on record: systemic delivery; cited from earlier work.
Assay [2] deals with rats following ligation of spinal nerves. The settings on record: local (subcutaneous) or systemic administration; cited from earlier work.
The subject of assay [3] is recombinant dog CB1 receptors. The assay is described as follows: Interaction with recombinant dog CB1. The settings on record: test concentrations up to 10 μM.
The target in assay [4] is recombinant rat CB1 receptors (Rattus norvegicus, UniProt P20272). The assay can be described thus: Interaction with recombinant rat CB1. The settings on record: test concentrations up to 10 μM.
Chain of recombinant rat CB1 receptors (P20272 whole entry): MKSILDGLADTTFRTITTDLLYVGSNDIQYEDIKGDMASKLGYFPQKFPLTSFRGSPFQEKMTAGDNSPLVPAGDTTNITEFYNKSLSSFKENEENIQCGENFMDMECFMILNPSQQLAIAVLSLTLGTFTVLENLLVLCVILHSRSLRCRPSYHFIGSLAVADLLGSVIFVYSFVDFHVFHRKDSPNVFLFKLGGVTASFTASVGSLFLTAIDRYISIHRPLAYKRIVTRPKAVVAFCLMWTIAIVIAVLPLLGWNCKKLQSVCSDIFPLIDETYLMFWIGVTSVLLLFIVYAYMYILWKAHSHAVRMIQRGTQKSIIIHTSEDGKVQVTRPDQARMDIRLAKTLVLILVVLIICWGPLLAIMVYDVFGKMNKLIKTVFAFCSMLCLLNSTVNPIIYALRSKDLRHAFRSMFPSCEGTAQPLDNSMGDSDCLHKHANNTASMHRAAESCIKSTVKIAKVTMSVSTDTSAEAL
Assay [5] has as its system rats with TNBS-induced colitis and healthy rats. The assay can be described thus: Visceral pain model of colitis: visceromotor response to colorectal distension after TNBS. In kind it is in vivo, rat. As for the experimental part:
Rats with active colitis display allodynia and hyperalgesia to colorectal distension following the administration of trinitrobenzene sulfonic acid (TNBS).
Abdominal electromyographic (EMG) electrode implantation is followed by measurement of visceromotor response (VMR) at 0, 20, 40, 60, and 80 mmHg of colorectal distention on day 4. The effect of each treatment on colonic compliance is also determined.
Abdominal EMG electrode implantation is followed by measurement of VMR at 0, 20, 40, 60, and 80 mmHg of colorectal distention on day 4. The effect of each treatment on colonic compliance is also determined.

For assay [6], the target named is T1, human CB2 receptor (Homo sapiens, UniProt P34972). The assay can be described thus: GPCR signaling assay, recombinant human CB2. Format: cell-based.
T1 sequence (P34972 whole entry): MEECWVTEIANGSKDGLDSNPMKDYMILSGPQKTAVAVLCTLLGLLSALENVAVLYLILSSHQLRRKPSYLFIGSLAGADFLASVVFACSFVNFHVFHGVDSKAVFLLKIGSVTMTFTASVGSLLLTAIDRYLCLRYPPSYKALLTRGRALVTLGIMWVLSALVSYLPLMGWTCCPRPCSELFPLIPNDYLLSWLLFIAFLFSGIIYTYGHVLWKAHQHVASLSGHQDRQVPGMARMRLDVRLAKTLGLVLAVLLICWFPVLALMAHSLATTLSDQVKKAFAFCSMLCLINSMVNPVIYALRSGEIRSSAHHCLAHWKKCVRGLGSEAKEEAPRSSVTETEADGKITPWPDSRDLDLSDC
The target in assay [7] is T2, hCB1 (Homo sapiens, UniProt P21554). The assay can be described thus: Interaction with recombinant human CB1. The settings on record: test concentrations up to 10 μM.
T2 sequence (P21554 whole entry): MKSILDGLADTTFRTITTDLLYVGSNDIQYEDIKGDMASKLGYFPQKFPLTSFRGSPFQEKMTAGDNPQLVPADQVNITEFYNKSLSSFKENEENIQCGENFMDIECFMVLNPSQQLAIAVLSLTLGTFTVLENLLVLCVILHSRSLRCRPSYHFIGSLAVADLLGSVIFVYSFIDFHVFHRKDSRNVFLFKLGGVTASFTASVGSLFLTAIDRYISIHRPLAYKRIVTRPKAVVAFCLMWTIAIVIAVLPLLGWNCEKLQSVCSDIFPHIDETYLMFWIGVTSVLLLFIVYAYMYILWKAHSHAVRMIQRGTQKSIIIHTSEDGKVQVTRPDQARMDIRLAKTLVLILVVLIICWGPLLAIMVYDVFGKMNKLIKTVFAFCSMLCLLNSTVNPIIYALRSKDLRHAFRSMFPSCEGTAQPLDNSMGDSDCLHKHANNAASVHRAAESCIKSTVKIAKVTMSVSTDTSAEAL
The target in assay [8] is T3, recombinant CB2 receptors (dog) (Canis lupus familiaris, UniProt E2RKA3).
T3 construct: other: GPCR signaling assays, recombinant receptor
T3 sequence (E2RKA3 1-360): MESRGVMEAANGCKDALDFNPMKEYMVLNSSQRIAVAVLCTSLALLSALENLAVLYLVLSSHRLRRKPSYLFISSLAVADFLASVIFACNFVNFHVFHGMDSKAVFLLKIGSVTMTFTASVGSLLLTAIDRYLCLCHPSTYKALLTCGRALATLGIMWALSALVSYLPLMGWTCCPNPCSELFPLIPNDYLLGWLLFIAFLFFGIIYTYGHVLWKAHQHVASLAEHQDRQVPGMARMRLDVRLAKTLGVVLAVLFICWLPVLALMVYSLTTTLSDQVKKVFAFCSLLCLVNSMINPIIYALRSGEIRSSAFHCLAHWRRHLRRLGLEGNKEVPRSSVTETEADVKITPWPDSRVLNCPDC
The assay is described as follows: GPCR signaling assay, recombinant dog CB2. Format: cell-based. The settings on record: GPCR signaling assays, recombinant receptor. As to the method: (§1) The binding affinity, potency, and selectivity of Compound A for recombinant CB2 receptors were determined using radioligand binding assays and GPCR signaling assays.

For assay [9], the target named is T4, recombinant CB2 receptors (rat) (Rattus norvegicus, UniProt Q9QZN9).
T4 sequence (Q9QZN9 1-360): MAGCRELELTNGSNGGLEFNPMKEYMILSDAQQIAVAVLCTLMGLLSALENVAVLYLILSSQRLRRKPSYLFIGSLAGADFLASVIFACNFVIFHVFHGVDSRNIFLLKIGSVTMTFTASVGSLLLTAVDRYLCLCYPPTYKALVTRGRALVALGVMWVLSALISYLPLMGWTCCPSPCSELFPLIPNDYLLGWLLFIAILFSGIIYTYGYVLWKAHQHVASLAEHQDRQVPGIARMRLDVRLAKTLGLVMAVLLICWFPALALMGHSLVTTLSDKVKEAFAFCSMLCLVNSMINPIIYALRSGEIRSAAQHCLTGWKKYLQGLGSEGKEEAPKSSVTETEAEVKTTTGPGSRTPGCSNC
The assay is described as follows: GPCR signaling assay, recombinant rat CB2. The settings on record: GPCR signaling assays, recombinant receptor. Format: cell-based. As to the method: as §1

Assay [10] concerns Sprague Dawley rats, acetic acid-induced writhing. The assay is described as follows: Acetic acid-induced writhing model of visceral pain. In kind it is in vivo, rat. The settings on record: 3, 10, 30 mg/kg PO, acetic acid 1.5% IP; FIGS. 11 and 12. As for the experimental part: Writhing is induced in male Sprague Dawley rats by administering glacial acetic acid (1.5%) intraperitoneally (IP). […] On test day, rats are placed in observation cages and administered compound according to the schedules in Tables D, F, H, and J. Treatment groups are as provided in Tables E, G, I, and K.
Studies are performed to evaluate single dose assessment (Tables D and E), maintenance of efficacy after repeated administration (Tables F and G), antagonist interactions (Tables H and I), and dose response (Tables J and K).
Writhing behavior is scored for 30 minutes in five-minute time bins.
Writhing behavior was evaluated 20 minutes later and recorded for 30 minutes (in five-minute bins).
A general note: In writhing tests, fewer writhes than in controls are read as antinociception.

Assay [11] relates to male Sprague-Dawley rats, STZ-induced PDPN. The assay is described as follows: Streptozotocin-induced painful diabetic peripheral neuropathy (PDPN) model. In kind it is in vivo, rat. The settings on record: 10 mg/kg orally in 0.5% methylcellulose; 1, 4 and 6 hours post-dosing; FIG. 9, FIG. 10. As for the experimental part: Male Sprague-Dawley rats were injected intraperitoneally with 50 mg/kg of streptozotocin (STZ) in sodium citrate buffer. 10% sucrose water was provided ad libitum for the first 48 hours post-STZ followed by regular drinking water. Rats were monitored once weekly for blood glucose levels and body weights. Development of tactile allodynia over time was analyzed using Von Frey filaments and a 50% withdrawal threshold was determined using Dixon's up-down procedure. […] Tactile allodynia was evaluated at 1, 4 and 6 hours post-dosing.

Assay [12] deals with T2, hCB1. The assay can be described thus: Radioligand binding assay, hCB1. The settings on record: Table C.
The target in assay [13] is T1, human CB2 receptor. The assay is described as follows: Radioligand binding assay, hCB2. The settings on record: Table C. Also noted: 93-0164 (CHO-K1 EA-Arrestin parental line); host or cells: CHO-K1 EA-Arrestin, clone #61.
Protocol: Preparation of Membranes: HTEK293 cells stably expressing human CB2 receptor were collected, washed in ice cold PBS, and centrifuged at 48,000×g for 20 min at 4° C. The cell pellet was then collected, resuspended in wash buffer (20 mM HEPES, pH 7.4 and 1 mM EDTA), homogenized on ice using a Brinkman Polytron, and centrifuged at 48,000×g for 20 min at 4° C. The resultant pellet was resuspended in ice cold 20 mM HEPES, pH 7.4, homogenized again on ice, recentrifuged for 20 min at 4° C., and membrane pellets were then stored at −80° C. until needed.
[^3H]CP55,940 and [^3H]WIN55,212-2 Radioligand Binding Assays: Radioligand binding assays for human CB2 receptors were performed using two different agonist radioligands, [^3H]CP55,940 and [^3H]WIN55,212-2 and similar assay conditions. For both assays, nonspecific binding was determined in the presence of 10 mM unlabeled compound. […] Then, 25 μL of BetaScint scintillation cocktail was added to each well, and plates were read in a Packard TopCount scintillation counter.
The subject of assay [14] is capsaicin-induced hyperalgesia and allodynia. The settings on record: topical administration, humans; cited from earlier work.
For another assay, the target named is CB1 (Mus musculus, UniProt P47746). The settings on record: exogenous administration; cited from earlier work.
Chain of CB1 (P47746 whole entry): as the sequence (P20272 whole entry) above, with E95D counted along it

As for `CN1CCCCC1Cn1cc(C(=O)c2cc([N+](=O)[O-])ccc2I)c2ccccc21` (centres unmarked) [AM1241], the “Hyperalgesia in carrageenan, capsaicin, and formalin models” value in assay [1] is listed as “suppresses hyperalgesia”. In [2], the “Tactile and thermal hypersensitivity” value is “reverses tactile and thermal hypersensitivity”.

Regarding `CC(C)(C)[C@@H](CO)NC(=O)c1nn(-c2c[n+]([O-])ccn2)c2c1C[C@@H]1C[C@H]21` [Compound 699, (1aS,5aS)-2-(4-Oxy-pyrazin-2-yl)-1a,2,5,5a-tetrahydro-1H-2,3-diaza-cyclopropa[a]pentalene-4-carboxylic acid ((S)-1-hydroxymethyl-2,2-dimethyl-propyl)-amide], the “Interaction with recombinant dog CB1 receptors” value in assay [3] is “did not interact”. The “Interaction with recombinant rat CB1 receptors” value in assay [4] is recorded as “did not interact”. In addition, in assay [5] (30 mg/kg oral gavage twice daily for five days), the “Response (VMR) in rats with healthy colons” value is “without changing response”. The “Colonic hypersensitivity, dose dependence” value in [5] (10 and 30 mg/kg oral gavage twice daily, rats with TNBS-induced colitis) is listed as “reducing colonic hypersensitivity in a dose-dependent manner”. In assay [5] (10 or 30 mg/kg oral gavage twice daily for five days, FIG. 13), the “Visceral pain response (VMR to colorectal distension), rats with TNBS-induced colitis” value is given as “reduces the visceral pain response”. Further, the “Kind of activity at the CB2 receptor” value on human CB2 receptor [6] was “full agonist”. At hCB1 [7], the “Interaction with recombinant human CB1 receptors” value is listed as “did not interact”. In addition, the pEC50 in assay [8] and in [9] was 8.10 to 8.22 in each case. In addition, the “Efficacy on writhing behavior” value in assay [10] is on record as “efficacious”. For the same compound, in [11], the “Analgesic efficacy (tactile allodynia, 50% withdrawal threshold)” value is “robust and sustained analgesic efficacy over 6 hours”.

Take `CONC(=O)[C@@H](NC(=O)c1nn(-c2c[n+]([O-])ccn2)c2c1C[C@H]1C[C@@H]21)C(C)(C)C` [Compound 755, (1aR,5aR)-2-(4-Oxy-pyrazin-2-yl)-1a,2,5,5a-tetrahydro-1H-2,3-diaza-cyclopropa[a]pentalene-4-carboxylic acid ((S)-1-methoxycarbamoyl-2,2-dimethyl-propyl)-amide]: the negative-log Ki (pKi) was 5.92 on hCB1 [12] and 8.42 at human CB2 receptor [13].

Regarding `CCCCCCC(C)(C)c1cc(O)c2c(c1)OC(C)(C)[C@@H]1CC=C(CO)C[C@@H]21` [HU-210], in [14], the “Capsaicin-induced hyperalgesia and allodynia” value is “attenuates capsaicin-induced hyperalgesia and allodynia”.

With `CCCCC/C=C\C/C=C\C/C=C\C/C=C\CCCC(=O)NCCCl` [arachidonyl-2-chloroethylamide], at CB1, the Effect on pain result is “reduces pain”.

Usually pEC50 stands for the negative decadic logarithm of the EC50, by convention in mol/L. As usually defined, the pKi is −log10 of the Ki, conventionally taken in molar units.
